One assay deals with NCI-H358 cells. Put plainly: NCI-H358 3D tumor spheroid growth inhibition. Format: cell-based. To be noted: Homo sapiens, NCI-H358, 168 h, 3D spheroids, 7 days, 3D CellTiter Glo; cellular IC50 designated EC50; read-out: H358 EC50. A digest of the protocol:
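Cells seeded at 1000/well in ultra-low-attachment plates at 37 °C, 5% CO2 to form spheroids, then incubated a further 7 days with compounds. Viability by 3D CellTiter Glo luminescence; % inhibition versus DMSO wells, with normalized cellular IC50 reported as EC50.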
For orientation: ATP-based viability assays read luminescence as a measure of living cells.

Assay [1] has as its target SHP-2 full length protein (Homo sapiens (Human), UniProt Q06124). The assay can be described thus: SHP-2 biochemical DiFMUP pseudosubstrate-fluorogenic assay. To be noted: 0.2 nM SHP-2, 1 μM IRS-1 activator peptide, 50 μM DiFMUP; read-out: SHP2 IC50. A digest of the protocol: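 In-house recombinant full-length SHP-2 preincubated 90 min at room temperature with compounds (1:3 series, 10,000–0.005 nM), then DiFMUP substrate added at 50 μM final for 30 min more. Fluorescence normalised to DMSO wells (100%) and IC50 derived by curve fitting.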

Sequence of SHP-2 full length protein (Q06124 whole entry): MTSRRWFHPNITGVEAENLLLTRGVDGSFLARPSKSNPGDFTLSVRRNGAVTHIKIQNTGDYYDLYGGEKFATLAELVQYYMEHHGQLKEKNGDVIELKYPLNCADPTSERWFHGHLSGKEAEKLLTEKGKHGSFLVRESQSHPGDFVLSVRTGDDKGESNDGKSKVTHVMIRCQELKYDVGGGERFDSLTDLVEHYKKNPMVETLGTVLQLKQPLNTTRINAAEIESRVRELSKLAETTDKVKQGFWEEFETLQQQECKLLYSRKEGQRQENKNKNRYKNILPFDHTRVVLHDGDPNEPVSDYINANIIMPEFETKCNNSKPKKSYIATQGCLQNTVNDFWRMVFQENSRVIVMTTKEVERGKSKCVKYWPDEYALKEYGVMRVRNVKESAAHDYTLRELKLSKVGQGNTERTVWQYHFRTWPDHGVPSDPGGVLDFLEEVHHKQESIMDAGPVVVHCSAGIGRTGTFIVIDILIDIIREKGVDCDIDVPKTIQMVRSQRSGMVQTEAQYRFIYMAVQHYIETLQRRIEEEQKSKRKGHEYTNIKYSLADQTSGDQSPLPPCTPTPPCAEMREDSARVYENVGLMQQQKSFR

Usually EC50 stands for the concentration that produces a half-maximal response. Broadly, the IC50 is the point on the concentration scale where inhibition reaches its midpoint. With `C[C@@H]1OCC2(CCN(c3ncc(Sc4cccc5c(C=O)csc45)c4nccn34)CC2)[C@@H]1N` [Example 96, 7-((5-((3S,4S)-4-amino-3-methyl-2-oxa-8-azaspiro[4.5]decan-8-yl)imidazo[1,2-c]pyrimidin-8-yl)thio)benzo[b]thiophene-3-carbaldehyde], the 50% effective concentration (EC50) in the assay with NCI-H358 cells was 97 nM. Further, in assay [1], the half-maximal inhibitory concentration (IC50) is 4.1 nM.
The like results for `C[C@@H]1OCC2(CCN(c3ncc(Sc4ccnc5c4CCC5)c4nccn34)CC2)[C@@H]1N` [Example 97, (3S,4S)-8-(8-((6,7-dihydro-5H-cyclopenta[b]pyridin-4-yl)thio)imidazo[1,2-c]pyrimidin-5-yl)-3-methyl-2-oxa-8-azaspiro[4.5]decan-4-amine] were, in that order, 110 nM and 11 nM.
The like results for `C[C@@H]1OCC2(CCN(c3ncc(Sc4cccn5nccc45)c4nccn34)CC2)[C@@H]1N` [Example 98, (3S,4S)-3-methyl-8-(8-(pyrazolo[1,5-a]pyridin-4-ylthio)imidazo[1,2-c]pyrimidin-5-yl)-2-oxa-8-azaspiro[4.5]decan-4-amine] were, in that order, 250 nM and 16 nM.
For `C[C@@H]1OCC2(CCN(c3ncc(Sc4cccc5ccsc45)c4nccn34)CC2)[C@@H]1N` [Example 99, (3S,4S)-8-(8-(benzo[b]thiophen-7-ylthio)imidazo[1,2-c]pyrimidin-5-yl)-3-methyl-2-oxa-8-azaspiro[4.5]decan-4-amine] the same measures were 96 nM and 4.1 nM.
`C[C@@H]1OCC2(CCN(c3ncc(Sc4cccc5nc(N)sc45)c4nccn34)CC2)[C@@H]1N` [Example 100, (3S,4S)-8-(8-((2-aminobenzo[d]thiazol-7-yl)thio)imidazo[1,2-c]pyrimidin-5-yl)-3-methyl-2-oxa-8-azaspiro[4.5]decan-4-amine]: the EC50 with NCI-H358 cells came out at 140 nM. The concentration for half-maximal inhibition (IC50) in assay [1] is 6.7 nM.
For `CSc1ccccc1Sc1cnc(N2CCC3(CC2)CO[C@@H](C)[C@H]3N)n2ccnc12` [Example 101, (3S,4S)-3-methyl-8-(8-((2-(methylthio)phenyl)thio)imidazo[1,2-c]pyrimidin-5-yl)-2-oxa-8-azaspiro[4.5]decan-4-amine] the same measures were 84 nM and 5.7 nM.
Turning to `C[C@@H]1OCC2(CCN(c3ncc(Sc4ccnc5sccc45)c4nccn34)CC2)[C@@H]1N` [Example 102, (3S,4S)-3-methyl-8-(8-(thieno[2,3-b]pyridin-4-ylthio)imidazo[1,2-c]pyrimidin-5-yl)-2-oxa-8-azaspiro[4.5]decan-4-amine], in the assay on NCI-H358 cells, the EC50 was determined as 66 nM. In addition, the half-inhibitory concentration (IC50) in assay [1] stood at 4 nM.
For `C[C@@H]1OCC2(CCN(c3ncc(Sc4ccnc5c(Br)cccc45)c4nccn34)CC2)[C@@H]1N` [Example 103] the same measures were 150 nM and 4.6 nM.
On to `C[C@@H]1OCC2(CCN(c3ncc(Sc4ccnc5c(N)cccc45)c4nccn34)CC2)[C@@H]1N` [Example 104, (3S,4S)-8-(8-((8-aminoquinolin-4-yl)thio)imidazo[1,2-c]pyrimidin-5-yl)-3-methyl-2-oxa-8-azaspiro[4.5]decan-4-amine], for which the EC50 in the assay on NCI-H358 cells was found to be 74 nM. The IC50 in assay [1] was 4.2 nM.
For `COC(=O)c1cccc2c(Sc3cnc(N4CCC5(CC4)CO[C@@H](C)[C@H]5N)n4ccnc34)ccnc12` [Example 105, methyl 4-((5-((3S,4S)-4-amino-3-methyl-2-oxa-8-azaspiro[4.5]decan-8-yl)imidazo[1,2-c]pyrimidin-8-yl)thio)quinoline-8-carboxylate] the same measures were 760 nM and 82 nM.
For `C[C@@H]1OCC2(CCN(c3ncc(Sc4ccnc5ccsc45)c4nccn34)CC2)[C@@H]1N` [Example 106, (3S,4S)-3-methyl-8-(8-(thieno[3,2-b]pyridin-7-ylthio)imidazo[1,2-c]pyrimidin-5-yl)-2-oxa-8-azaspiro[4.5]decan-4-amine] the same measures were 39 nM and 4.2 nM.
For `C[C@@H]1OCC2(CCN(c3ncc(Sc4cccc5cnsc45)c4nccn34)CC2)[C@@H]1N` [Example 107, (3S,4S)-8-(8-(benzo[d]isothiazol-7-ylthio)imidazo[1,2-c]pyrimidin-5-yl)-3-methyl-2-oxa-8-azaspiro[4.5]decan-4-amine] the same measures were 64 nM and 3.7 nM.
As to `CSc1c(Cl)cccc1Sc1cnc(N2CCC3(CC2)CO[C@@H](C)[C@H]3N)n2ccnc12` [Example 108, (3S,4S)-8-(8-((3-chloro-2-(methylthio)phenyl)thio)imidazo[1,2-c]pyrimidin-5-yl)-3-methyl-2-oxa-8-azaspiro[4.5]decan-4-amine], in the assay on NCI-H358 cells, the concentration giving a half-maximal response (EC50) turned out to be 87 nM. Besides, the IC50 in assay [1] is 3.3 nM.
As for `C[C@@H]1OCC2(CCN(c3ncc(Sc4ccnc5c(-n6cncn6)cccc45)c4nccn34)CC2)[C@@H]1N` [Example 109, (3S,4S)-8-(8-((8-(1H-1,2,4-triazol-1-yl)quinolin-4-yl)thio)imidazo[1,2-c]pyrimidin-5-yl)-3-methyl-2-oxa-8-azaspiro[4.5]decan-4-amine], the concentration giving a half-maximal response (EC50) with NCI-H358 cells is 260 nM. Besides, the IC50 in assay [1] amounted to 18 nM.
The like results for `C[C@@H]1OCC2(CCN(c3ncc(Sc4ccnc5c(C(=O)O)cccc45)c4nccn34)CC2)[C@@H]1N` [Example 110, 4-((5-((3S,4S)-4-amino-3-methyl-2-oxa-8-azaspiro[4.5]decan-8-yl)imidazo[1,2-c]pyrimidin-8-yl)thio)quinoline-8-carboxylic acid] were, in that order, 930 nM and 190 nM.
For `C[C@@H]1OCC2(CCN(c3ncc(Sc4cc(N)nc5ccccc45)c4nccn34)CC2)[C@@H]1N` [Example 111, (3S,4S)-8-(8-((2-aminoquinolin-4-yl)thio)imidazo[1,2-c]pyrimidin-5-yl)-3-methyl-2-oxa-8-azaspiro[4.5]decan-4-amine] the same measures were 170 nM and 7.1 nM.
The like results for `CC(=O)Nc1cccc2c(Sc3cnc(N4CCC5(CC4)CO[C@@H](C)[C@H]5N)n4ccnc34)ccnc12` [Example 112, N-(4-((5-((3S,4S)-4-amino-3-methyl-2-oxa-8-azaspiro[4.5]decan-8-yl)imidazo[1,2-c]pyrimidin-8-yl)thio)quinolin-8-yl)acetamide] were, in that order, 56 nM and 10 nM.
For `C[C@@H]1OCC2(CCN(c3ncc(Sc4ccnc5c(C(N)=O)cccc45)c4nccn34)CC2)[C@@H]1N` [Example 113, 4-((5-((3S,4S)-4-amino-3-methyl-2-oxa-8-azaspiro[4.5]decan-8-yl)imidazo[1,2-c]pyrimidin-8-yl)thio)quinoline-8-carboxamide], the EC50 with NCI-H358 cells is 340 nM. In addition, the IC50 in assay [1] is 11 nM.
On to `C[C@@H]1OCC2(CCN(c3ncc(Sc4ccnc5ccccc45)c4nccn34)CC2)[C@@H]1N` [Example 114, (3S,4S)-3-methyl-8-(8-(quinolin-4-ylthio)imidazo[1,2-c]pyrimidin-5-yl)-2-oxa-8-azaspiro[4.5]decan-4-amine], for which the concentration for a half-maximal effect (EC50) in the assay with NCI-H358 cells was found to be 64 nM. The half-inhibitory concentration (IC50) in assay [1] came out at 6.8 nM.
The like results for `C[C@@H]1OCC2(CCN(c3ncc(Sc4ccnc5ccc(F)cc45)c4nccn34)CC2)[C@@H]1N` [Example 115, (3S,4S)-8-(8-((6-fluoroquinolin-4-yl)thio)imidazo[1,2-c]pyrimidin-5-yl)-3-methyl-2-oxa-8-azaspiro[4.5]decan-4-amine] were, in that order, 90 nM and 8.4 nM.

The record behind these values is patent publication US11179397B2, “Imidazopyrimidine derivatives” (Gilead Sciences, Inc., priority 2018, dated 2021).
